The values below come from PubChem BioAssay (NCI).

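Where inhibition never reached the appropriate level, the endpoint shown equals the highest concentration tested. Otherwise, values were interpolated linearly from a five-concentration, 48-hour dose response in 96-well plates. TGI denotes the concentration required for complete inhibition of growth.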

Among the test systems are A498 renal; EKVX NSCLC; HCT-116 colon; K-562 leukemia; MDA-MB-231 breast; MOLT-4 leukemia; RPMI-8226 leukemia; SF-268 CNS; SF-295 CNS; SN12C renal; SR leukemia; T-47D breast; U251 CNS; UACC-62 melanoma; UO-31 renal; NCI-H23 lung; NCI-H460 lung.
Holding throughout (assay): DTP human tumour cell line panel, 48 h

For orientation: TGI means the concentration giving total growth inhibition. A higher TGI goes with lower sensitivity of the cells. For `CCOP(C)(=O)C(Cc1c[nH]c2ccccc12)C(=O)O` (stereo not given), the TGI in the experiment with A498 renal, in the experiment on EKVX NSCLC, with HCT-116 colon, in the experiment with K-562 leukemia, in the experiment with MDA-MB-231 breast and in the experiment on MOLT-4 leukemia was above 100 µM in each case. Besides, the TGI with RPMI-8226 leukemia, in the experiment with SF-268 CNS, in the experiment with SF-295 CNS, in the experiment with SN12C renal, with SR leukemia and in the experiment with T-47D breast was above 100 µM each time. Besides, the TGI in the experiment on U251 CNS, in the experiment with UACC-62 melanoma and with UO-31 renal was above 100 µM each time.
As to `CCOC(=O)c1ccc(Nc2nc3cc(C(F)(F)F)ccc3nc2-c2ccccc2)cc1`, the TGI is above 100 µM in the experiment on EKVX NSCLC; above 100 µM with HCT-116 colon; above 100 µM with K-562 leukemia; above 100 µM in the experiment with MDA-MB-231 breast; above 10 µM with MOLT-4 leukemia; above 100 µM in the experiment with NCI-H23 lung. In addition, the TGI in the experiment on NCI-H460 lung was above 100 µM; in the experiment with RPMI-8226 leukemia, above 100 µM; with SF-268 CNS, above 100 µM; in the experiment on SF-295 CNS it was 60.6 µM; in the experiment on SN12C renal it was above 100 µM; with SR leukemia, above 100 µM. Moreover, the TGI was 91.6 µM in the experiment on T-47D breast, 49.5 µM in the experiment on U251 CNS, 29.4 µM in the experiment on UACC-62 melanoma and above 100 µM with UO-31 renal.
Turning to `CCN(CC)CC(=O)Nc1c(C(N)=O)nnn1Cc1cc(Cl)c(C(=O)c2ccc(Cl)cc2)c(Cl)c1`, the TGI in the experiment with A498 renal was above 100 µM; in the experiment with EKVX NSCLC, above 100 µM; with HCT-116 colon, 32.1 µM; with K-562 leukemia, 37.4 µM; in the experiment on MDA-MB-231 breast, 34.8 µM; in the experiment on MOLT-4 leukemia, 56 µM. Also, the TGI was 37.4 µM with NCI-H23 lung; 77.7 µM in the experiment on RPMI-8226 leukemia; 45.5 µM in the experiment on SF-268 CNS; 32.9 µM with SF-295 CNS; 50.3 µM in the experiment on SN12C renal; 68.9 µM in the experiment with SR leukemia. Also, the TGI with T-47D breast turned out to be 61.9 µM; in the experiment on U251 CNS, 41.1 µM; in the experiment with UACC-62 melanoma, 35.4 µM; in the experiment with UO-31 renal it was 31.2 µM.
On to `COc1ccc(NC(=O)CC(=O)N2N=C(N3CCCCC3)CC2c2ccccc2)cc1` (stereo not given), for which the TGI in the experiment with A498 renal, with EKVX NSCLC, with HCT-116 colon, with MDA-MB-231 breast, in the experiment with MOLT-4 leukemia and with NCI-H23 lung was above 100 µM in each case. Moreover, the TGI in the experiment with NCI-H460 lung, in the experiment on SF-268 CNS, in the experiment on SF-295 CNS, in the experiment on SN12C renal, in the experiment on SR leukemia and with T-47D breast was above 100 µM each time. Also, the TGI in the experiment on U251 CNS, in the experiment on UACC-62 melanoma and in the experiment on UO-31 renal was above 100 µM in each case.
For `COC(=O)/C=C/c1ccc2c(c1)CCC2`, the TGI in the experiment on A498 renal is above 100 µM; in the experiment on EKVX NSCLC it was above 100 µM; with HCT-116 colon it was 98 µM; in the experiment with K-562 leukemia it was above 100 µM; in the experiment on MDA-MB-231 breast, above 100 µM; in the experiment with MOLT-4 leukemia, above 100 µM. Besides, the TGI in the experiment on NCI-H23 lung is above 100 µM; with NCI-H460 lung it was above 100 µM; in the experiment with RPMI-8226 leukemia, above 100 µM; in the experiment on SF-268 CNS it was above 100 µM; in the experiment on SF-295 CNS it was above 100 µM; in the experiment with SR leukemia it was 72.9 µM. Also, the TGI in the experiment with T-47D breast, in the experiment with U251 CNS and with UO-31 renal was above 100 µM in each case.
On to `Cc1ccc(/C(O)=C/c2nc3ccccc3oc2=O)cc1`, for which the TGI in the experiment on A498 renal, in the experiment on EKVX NSCLC, in the experiment with HCT-116 colon, with K-562 leukemia, in the experiment on MDA-MB-231 breast and in the experiment with MOLT-4 leukemia was above 100 µM throughout. The TGI in the experiment with NCI-H23 lung, in the experiment on NCI-H460 lung, in the experiment with SF-268 CNS, in the experiment with SF-295 CNS, in the experiment on SN12C renal and in the experiment with SR leukemia was above 100 µM each time. Further, the TGI in the experiment on T-47D breast, with U251 CNS, with UACC-62 melanoma and in the experiment on UO-31 renal was above 100 µM throughout.
Take `COc1cc(OC)cc(Oc2nc3ccccc3nc2C(=O)O)c1`: the TGI with A498 renal, in the experiment with EKVX NSCLC, in the experiment on HCT-116 colon, in the experiment on K-562 leukemia, with MDA-MB-231 breast and in the experiment with MOLT-4 leukemia was above 100 µM throughout. Also, the TGI with NCI-H23 lung, in the experiment with NCI-H460 lung, in the experiment with RPMI-8226 leukemia, with SF-268 CNS, with SF-295 CNS and in the experiment on SR leukemia was above 100 µM each time. In addition, the TGI in the experiment on T-47D breast, with U251 CNS, with UACC-62 melanoma and with UO-31 renal was above 100 µM throughout.
With `CCCCCCCC1(N=[N+]=[N-])C(=O)c2ccccc2N(C)C1=O` (stereo not given), the total growth inhibition concentration (TGI) in the experiment on A498 renal, in the experiment on EKVX NSCLC, in the experiment on HCT-116 colon, with MDA-MB-231 breast, with MOLT-4 leukemia and in the experiment with NCI-H23 lung was above 100 µM in each case. Besides, the TGI with NCI-H460 lung, in the experiment on RPMI-8226 leukemia, in the experiment on SF-268 CNS, with SF-295 CNS, with SN12C renal and with SR leukemia was above 100 µM in each case. Also, the TGI in the experiment with T-47D breast, in the experiment with U251 CNS and in the experiment with UACC-62 melanoma was above 100 µM in each case.
As to `CC(=O)Oc1ccc2c(c1)Oc1cc(C(C)=O)ccc1C21OC(=O)c2ccccc21` (stereo not given), the TGI with A498 renal, in the experiment on EKVX NSCLC, in the experiment on HCT-116 colon, with K-562 leukemia, with MDA-MB-231 breast and in the experiment with MOLT-4 leukemia was above 100 µM each time. Also, the TGI with NCI-H23 lung, in the experiment on NCI-H460 lung, in the experiment with RPMI-8226 leukemia, in the experiment on SF-268 CNS, in the experiment on SF-295 CNS and in the experiment with SN12C renal was above 100 µM throughout. Besides, the TGI with T-47D breast, with U251 CNS, in the experiment on UACC-62 melanoma and in the experiment with UO-31 renal was above 100 µM in each case.
